Assays:
Aedes aegypti = assay: Warm Body assay, mosquito landings on treated warm body; assay type: in vivo; details: Aedes aegypti, read-out: Percentage of repellence of mosquitoes Aedes aegypti landing on the warm body
Outline: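 Compounds in ethanol (100 μL, various concentrations) were applied to a sandblasted glass dish covering the warm body (28.3 cm^2), with ethanol as control. Landings were counted automatically from 30 non-blood-fed, sugar-fed Aedes aegypti Rockefeller females aged 5–10 days, under 150 lux.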

Anopheles gambiae = assay: as above; assay type: in vivo
Outline: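 Compounds in ethanol, 100 μL at various concentrations, applied to a sandblasted glass dish (28.3 cm^2) covering a warm body simulating a host. Mosquito landings counted per stimulus against an ethanol-only control to gauge repellence.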

Q: Which pest or weed control at 3.2 µg/mL (Aedes aegypti; 0.0032 mg/mL (Table 1)) does the source give for CCCc1cc(OC)c(OC)c(OC)c1 [compound 1975, 1,2,3-trimethoxy-5-propylbenzene] here?
A: 33%

Q: And the pest or weed control at 7.1 µg/mL (Aedes aegypti; 0.0071 mg/mL (Table 1))?
A: 10%

Q: And the pest or weed control at 16 µg/mL (Aedes aegypti; 0.016 mg/mL (Table 1))?
A: 0%

Q: What about the pest or weed control at 35.7 µg/mL (Aedes aegypti; 0.0357 mg/mL (Table 1)) of the same compound?
A: 66%

Q: What about the pest or weed control at 53 µg/mL (Aedes aegypti; 0.053 mg/mL (Table 1)) of the same compound?
A: 30%

Q: And the pest or weed control at 80 µg/mL (Aedes aegypti; 0.08 mg/mL (Table 1))?
A: 93%

Q: And the pest or weed control at 119 µg/mL (Aedes aegypti; 0.119 mg/mL (Table 1))?
A: 36%

Q: And the pest or weed control at 178 µg/mL (Aedes aegypti; 0.178 mg/mL (Table 1))?
A: 83%

Q: And the pest or weed control at 267 µg/mL (Aedes aegypti; 0.267 mg/mL (Table 1))?
A: 87%

Q: And the pest or weed control at 400 µg/mL (Aedes aegypti; 0.4 mg/mL (Table 1))?
A: 94%

Q: What about the pest or weed control at 598 µg/mL (Aedes aegypti; 0.598 mg/mL (Table 1)) of the same compound?
A: 99%

Q: And the pest or weed control at 890 µg/mL (Aedes aegypti; 0.89 mg/mL (Table 1))?
A: 95%

Q: What about the pest or weed control at 2000 µg/mL (Aedes aegypti; 2 mg/mL (Table 1)) of the same compound?
A: 96%

Q: And the pest or weed control at 4470 µg/mL (Aedes aegypti; 4.47 mg/mL (Table 1))?
A: 98%

Q: And the pest or weed control at 10000 µg/mL (Aedes aegypti; 10 mg/mL (Table 1))?
A: 96%

Q: What about the pest or weed control at 3.2 µg/mL (Anopheles gambiae; Anopheles gambiae, 0.0032 mg/mL (Table 5), read-out: Percentage of repellence of mosquitoes Anopheles gambiae landing on the warm body) of the same compound?
A: 0%

Q: What about the pest or weed control at 7.1 µg/mL (Anopheles gambiae; Anopheles gambiae, 0.0071 mg/mL (Table 5), read-out: Percentage of repellence of mosquitoes Anopheles gambiae landing on the warm body) of the same compound?
A: 5%

Q: And the pest or weed control at 16 µg/mL (Anopheles gambiae; Anopheles gambiae, 0.016 mg/mL (Table 5), read-out: Percentage of repellence of mosquitoes Anopheles gambiae landing on the warm body)?
A: 78%

Q: And the pest or weed control at 53 µg/mL (Anopheles gambiae; Anopheles gambiae, 0.053 mg/mL (Table 5), read-out: Percentage of repellence of mosquitoes Anopheles gambiae landing on the warm body)?
A: 23%

Q: What about the pest or weed control at 80 µg/mL (Anopheles gambiae; Anopheles gambiae, 0.08 mg/mL (Table 5), read-out: Percentage of repellence of mosquitoes Anopheles gambiae landing on the warm body) of the same compound?
A: 0%

Q: What about the pest or weed control at 400 µg/mL (Anopheles gambiae; Anopheles gambiae, 0.4 mg/mL (Table 5), read-out: Percentage of repellence of mosquitoes Anopheles gambiae landing on the warm body) of the same compound?
A: 94%

Q: What about the pest or weed control at 2000 µg/mL (Anopheles gambiae; Anopheles gambiae, 2 mg/mL (Table 5), read-out: Percentage of repellence of mosquitoes Anopheles gambiae landing on the warm body) of the same compound?
A: 95%

Q: What about the pest or weed control at 4470 µg/mL (Anopheles gambiae; Anopheles gambiae, 4.47 mg/mL (Table 5), read-out: Percentage of repellence of mosquitoes Anopheles gambiae landing on the warm body) of the same compound?
A: 100%

Q: And the pest or weed control at 10000 µg/mL (Anopheles gambiae; Anopheles gambiae, 10 mg/mL (Table 5), read-out: Percentage of repellence of mosquitoes Anopheles gambiae landing on the warm body)?
A: 98%

Q: What about the repulsion (Anopheles gambiae; all doses ≥0.04% applied on the Warm Body (Table 5)) of the same compound?
A: > 90%

From patent publication US20250113823A1, “Arthropod Control Compositions” (priority 2022, published 2025)
